The target of series [1] is T1, MAO-A enzyme (Homo sapiens, UniProt P21397).
T1 construct: purchased Sigma-Aldrich
T1 sequence (P21397 1-527): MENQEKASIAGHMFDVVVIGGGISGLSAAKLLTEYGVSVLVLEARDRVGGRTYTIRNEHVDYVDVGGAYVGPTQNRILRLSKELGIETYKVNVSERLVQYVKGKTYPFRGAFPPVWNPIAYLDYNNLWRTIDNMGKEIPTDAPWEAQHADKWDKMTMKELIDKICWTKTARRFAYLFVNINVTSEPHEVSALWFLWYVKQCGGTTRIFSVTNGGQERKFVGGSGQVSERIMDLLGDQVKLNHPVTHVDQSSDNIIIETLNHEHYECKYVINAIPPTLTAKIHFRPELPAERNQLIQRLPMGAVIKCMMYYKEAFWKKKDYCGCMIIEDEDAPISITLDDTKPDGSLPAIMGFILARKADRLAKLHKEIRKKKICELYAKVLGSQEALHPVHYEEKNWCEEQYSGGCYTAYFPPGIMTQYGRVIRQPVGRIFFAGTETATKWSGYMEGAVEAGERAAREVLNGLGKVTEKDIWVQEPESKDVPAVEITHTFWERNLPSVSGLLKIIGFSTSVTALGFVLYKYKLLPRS
Kind of series: MAO activity assay (fluorometric, kynuramine substrate), MAO-A. The series is classed as biochemical. Particulars: for inhibition at 1000 µM: 10^−3 M; for inhibition at 1000 µM / inhibition at 100 µM: ± S.D.; for inhibition at 100 µM: 10^−4 M; for inhibition at 10 µM: 10^−5 M; for inhibition at 1 µM: 10^−6 M; for inhibition at 0.1 µM: 10^−7 M; for inhibition at 0.01 µM: 10^−8 M; for inhibition at 0.001 µM: 10^−9 M. On the procedure: The enzyme activity assay was performed in accordance with the procedure reported by Matsumoto et al. with slight modifications. All materials used in the enzymatic assays were purchased from Sigma-Aldrich Chemicals. All pipetting protocols in the assay were performed by the Biotek Precision robotic system (BioTek Instruments, Inc., Winooski, VT, USA). To prevent the effect of light MAO enzymes, the assay was performed in 96-well black plates. […] The enzyme stock solutions were further diluted with an assay buffer to obtain final concentrations of 0.006 mg/mL MAO-A and 0.015 mg/mL MAO-B. Kynuramine was dissolved in sterilized distilled water to obtain a 25 mM stock solution and then diluted with the assay buffer to obtain final concentrations of 40 μM for the MAO-A enzyme and 20 μM for the MAO-B enzyme. […] The addition of the diluted compounds was followed by the addition of either the MAO-A or MAO-B enzymes (50 μL/well). […] Fluorescence was read from top by using BioTek-Synergy H1 multimode microplate reader at the excitation/emission wavelengths of 310 and 380 nm.
(§1) The IC50 values (Table 2) were calculated from the plots of enzyme activity against concentrations, and the regression analyses were computed in GraphPad Prism Version 6 (GraphPad Software, Inc., La Jolla, CA, USA).

Series [2] has as its target T2, human recombinant MAO-B (Homo sapiens, UniProt P27338).
T2 construct: purchased Sigma-Aldrich
T2 sequence (P27338 1-520): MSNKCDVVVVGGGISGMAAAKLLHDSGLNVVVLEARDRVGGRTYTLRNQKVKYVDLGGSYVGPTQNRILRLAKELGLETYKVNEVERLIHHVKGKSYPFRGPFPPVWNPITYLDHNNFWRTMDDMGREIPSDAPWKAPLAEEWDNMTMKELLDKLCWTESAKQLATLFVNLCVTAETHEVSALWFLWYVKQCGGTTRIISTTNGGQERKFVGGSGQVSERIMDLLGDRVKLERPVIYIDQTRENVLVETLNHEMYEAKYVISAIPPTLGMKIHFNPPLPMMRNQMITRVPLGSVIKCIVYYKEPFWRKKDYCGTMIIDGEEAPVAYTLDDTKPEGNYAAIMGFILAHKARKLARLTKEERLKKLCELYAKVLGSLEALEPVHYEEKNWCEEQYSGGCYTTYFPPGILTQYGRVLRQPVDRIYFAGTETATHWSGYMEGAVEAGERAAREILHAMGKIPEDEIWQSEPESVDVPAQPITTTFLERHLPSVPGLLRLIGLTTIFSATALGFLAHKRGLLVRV
In words: MAO activity assay (fluorometric, kynuramine substrate), MAO-B. The series is classed as biochemical. Particulars: ± S.D.; for inhibition at 1000 µM: 10^−3 M; for inhibition at 100 µM: 10^−4 M. As for the experimental part: The enzyme activity assay was performed in accordance with the procedure reported by Matsumoto et al. with slight modifications. All materials used in the enzymatic assays were purchased from Sigma-Aldrich Chemicals. All pipetting protocols in the assay were performed by the Biotek Precision robotic system (BioTek Instruments, Inc., Winooski, VT, USA). To prevent the effect of light MAO enzymes, the assay was performed in 96-well black plates. Phosphate buffer (0.1 M, pH = 7.4) was used for the preparation of 5 mg/mL stock solutions of the human recombinant MAO-A and MAO-B enzymes. The enzyme stock solutions were further diluted with an assay buffer to obtain final concentrations of 0.006 mg/mL MAO-A and 0.015 mg/mL MAO-B. Kynuramine was dissolved in sterilized distilled water to obtain a 25 mM stock solution and then diluted with the assay buffer to obtain final concentrations of 40 μM for the MAO-A enzyme and 20 μM for the MAO-B enzyme. […] The addition of the diluted compounds was followed by the addition of either the MAO-A or MAO-B enzymes (50 μL/well). […] Fluorescence was read from top by using BioTek-Synergy H1 multimode microplate reader at the excitation/emission wavelengths of 310 and 380 nm.
as §1

The nature of series [3]: Cytotoxicity test (MTT assay). Particulars: mouse, NIH/3T3 mouse embryonic fibroblast cells (ATCC CRL-1658). (Formazan colour is commonly taken as a measure of viable cells.)
Method: The MTT assay was performed as previously described [21, 22, 23, 24, 25, 26].

Where only a bound is given, the exact number is not on record here.

The inhibition is the drop in the measured response relative to a control, in per cent. By melting point is commonly meant the temperature of the solid-liquid transition. Turning to `CCOc1ccc([N+](=O)[O-])c(NN=Cc2ccc(OC)cc2)n1` [Compound 2e, 6-Ethoxy-2-[2-(4-methoxybenzylidene)hydrazinyl]-3-nitropyridine], the melting point came to 175 °C. Also, in series [1], the inhibition at 1000 µM was 55.6 ± 1.05% and the inhibition at 100 µM stood at 14 ± 0.41%. Also, in series [2], the inhibition at 1000 µM came to 33.1 ± 1.14% and the inhibition at 100 µM came to 0.22 ± 0.008%.
As to `CCOc1ccc([N+](=O)[O-])c(NN=Cc2ccc(C#N)cc2)n1` [Compound 2g, 6-Ethoxy-2-[2-(4-cyanobenzylidene)hydrazinyl]-3-nitropyridine], the melting point was determined as 267 °C. In addition, in series [1], the inhibition at 1000 µM is 25.9 ± 0.87% and the inhibition at 100 µM was 14.4 ± 0.54%. Moreover, in series [2], the inhibition at 1000 µM is 0.67 ± 0.03% and the inhibition at 100 µM turned out to be 0.27 ± 0.01%.
On to `CCOc1ccc([N+](=O)[O-])c(NN=Cc2ccc(Cl)cc2)n1` [Compound 2b, 2-[2-(4-Chlorobenzylidene)hydrazinyl]-6-ethoxy-3-nitropyridine], for which the melting point is 211 °C. Further, in series [1], the inhibition at 1000 µM was 49 ± 1.22% and the inhibition at 100 µM came out at 0.46 ± 0.01%. In addition, in series [2], the inhibition at 1000 µM worked out at 0.43 ± 0.02% and the inhibition at 100 µM worked out at 0.11 ± 0.004%.
Compound `CCOc1ccc([N+](=O)[O-])c(NN=Cc2ccc(C)cc2)n1` [Compound 2d, 6-Ethoxy-2-[2-(4-methylbenzylidene)hydrazinyl]-3-nitropyridine] came in with a melting point of 171 °C. In series [1], the inhibition at 1000 µM was 20.1 ± 0.41% and the inhibition at 100 µM came out at 11.4 ± 0.28%. In addition, in series [2], the inhibition at 1000 µM stood at 0.52 ± 0.02% and the inhibition at 100 µM was found to be 0.18 ± 0.006%.
On the same counts, the results for `CCOc1ccc([N+](=O)[O-])c(NN=Cc2ccccc2)n1` [Compound 2a, 2-(2-Benzylidenehydrazinyl)-6-ethoxy-3-nitropyridine] are 168 °C, 25.6 ± 0.88%, 17.9 ± 0.68%, 0.76 ± 0.03% and 0.58 ± 0.01%.
`CCOc1ccc([N+](=O)[O-])c(NN=Cc2cccs2)n1` [Compound 2m, 6-Ethoxy-3-nitro-2-[2-((thiophen-2-yl)methylene)hydrazinyl]pyridine] returned a melting point of 152 °C. In series [1], the inhibition at 1000 µM came out at 41.4 ± 1.13% and the inhibition at 100 µM was 36 ± 1.15%. For the same compound, in series [2], the inhibition at 1000 µM is 34.4 ± 0.88% and the inhibition at 100 µM was determined as 21.2 ± 0.8%.
One may read the IC50 as the concentration at which inhibition is half-maximal. The compound `CCOc1ccc([N+](=O)[O-])c(NN=Cc2ccc(C(F)(F)F)cc2)n1` [Compound 2i, 6-Ethoxy-2-[2-(4-trifluoromethylbenzylidene)hydrazinyl]-3-nitropyridine] returned a melting point of 165 °C. Further, in series [1], the IC50 is 13.1 µM, the inhibition at 1000 µM was determined as 55.7 ± 1.26%, the inhibition at 100 µM came to 51.7 ± 1.18% and the inhibition at 10 µM was determined as 31.2 ± 1.2%. In series [1], the inhibition at 1 µM worked out at 21.1 ± 0.84%, the inhibition at 0.1 µM is 15.4 ± 0.62%, the inhibition at 0.01 µM stood at 12.7 ± 0.43% and the inhibition at 0.001 µM was found to be 11.6 ± 0.38%. Also, in series [2], the inhibition at 1000 µM was found to be 38.3 ± 1.19% and the inhibition at 100 µM amounted to 29.1 ± 0.99%. In series [3], the half-maximal inhibitory concentration (IC50) is above 1 mM.
In turn, `CCOc1ccc([N+](=O)[O-])c(NN=Cc2ccc(N(C)C)cc2)n1` [Compound 2h, 6-Ethoxy-2-[2-(4-dimethylaminobenzylidene)hydrazinyl]-3-nitropyridine] registered a melting point of 192 °C. For the same compound, in series [1], the inhibition at 1000 µM is 80.8 ± 1.31% and the inhibition at 100 µM was 16.9 ± 0.49%. Moreover, in series [2], the inhibition at 1000 µM is 86.3 ± 1.25% and the inhibition at 100 µM was determined as 3.52 ± 0.15%.
With `CCOc1ccc([N+](=O)[O-])c(NN=Cc2cccn2C)n1` [Compound 2k, 6-Ethoxy-2-[2-((1-methyl-1H-pyrrol-2-yl)methylene)hydrazinyl]-3-nitropyridine], the melting point amounted to 163 °C. Besides, in series [1], the 50% inhibitory concentration (IC50) was 6.12 µM, the inhibition at 1000 µM was determined as 76.6 ± 1.38%, the inhibition at 100 µM was found to be 66.1 ± 1.47% and the inhibition at 10 µM is 54.7 ± 1.2%. In addition, in series [1], the inhibition at 1 µM was 36.6 ± 1.08%, the inhibition at 0.1 µM came to 33.2 ± 0.92%, the inhibition at 0.01 µM stood at 25.2 ± 0.88% and the inhibition at 0.001 µM was 23 ± 0.89%. In addition, in series [2], the inhibition at 1000 µM turned out to be 40.9 ± 1.02% and the inhibition at 100 µM was determined as 39.7 ± 1.15%. Also, the concentration for half-maximal inhibition (IC50) in series [3] was above 1 mM.
For `CCOc1ccc([N+](=O)[O-])c(NN=Cc2ccc(F)cc2)n1` [Compound 2c, 6-Ethoxy-2-[2(4-fluorobenzylidene)hydrazinyl]-3-nitropyridine], the melting point turned out to be 191 °C. In addition, in series [1], the inhibition at 1000 µM was determined as 52 ± 1.02% and the inhibition at 100 µM was 7.09 ± 0.18%. In addition, in series [2], the inhibition at 1000 µM was 60.2 ± 1.18% and the inhibition at 100 µM is 0.69 ± 0.03%.
As for `O=C(NCCN1CCOCC1)c1ccc(Cl)cc1` [Moclobemide, moclobemide, reference compound], in series [1], the inhibition at 10 µM is 60.5 ± 2.55%, the inhibition at 1 µM was determined as 36.1 ± 1.98%, the inhibition at 0.1 µM was 22.1 ± 1.33% and the inhibition at 0.01 µM was 18.2 ± 0.81%. Besides, the inhibition at 0.001 µM in series [1] is 14.1 ± 0.72%.
Compound `CCOc1ccc([N+](=O)[O-])c(NN=Cc2ccc([N+](=O)[O-])cc2)n1` [Compound 2f, 6-Ethoxy-3-nitro-2-[2-(4-nitrobenzylidene)hydrazinyl]pyridine] displayed a melting point of 281 °C. Besides, in series [1], the inhibition at 1000 µM was 65 ± 1.23% and the inhibition at 100 µM came to 16 ± 0.56%. In addition, in series [2], the inhibition at 1000 µM turned out to be 7.39 ± 0.31% and the inhibition at 100 µM was determined as 0.55 ± 0.02%.
As for `CCOc1ccc([N+](=O)[O-])c(NN=Cc2ccco2)n1` [Compound 2l, 6-Ethoxy-2-[2-((furan-2-yl)methylene)hydrazinyl]-3-nitropyridine], the melting point came out at 155 °C. In series [1], the IC50 stood at 10.6 µM, the inhibition at 1000 µM is 67.8 ± 1.44%, the inhibition at 100 µM turned out to be 64.4 ± 1.3% and the inhibition at 10 µM came to 43 ± 1.02%. In series [1], the inhibition at 1 µM was 31 ± 0.98%, the inhibition at 0.1 µM was found to be 27.2 ± 0.89%, the inhibition at 0.01 µM worked out at 19.8 ± 0.41% and the inhibition at 0.001 µM stood at 17.88 ± 0.17%. In series [2], the inhibition at 1000 µM was 51 ± 1.08% and the inhibition at 100 µM worked out at 43 ± 1.06%. Moreover, in series [3], the IC50 was above 1 mM.

The values are drawn from article PMC6017090, “Design, Synthesis and Biological Evaluation of Novel N-Pyridyl-Hydrazone Derivatives as Potential Monoamine Oxidase (MAO) Inhibitors” (Molecules : A Journal of Synthetic Chemistry and Natural …, 2018).
